Measured values published in publication PMC7312527 (International Journal of Molecular Sciences, 2020).

How the values were obtained:
SH-SY5Y cells [1] = experiment: Neuroprotection against rotenone/oligomycin A, co-incubation (MTT); format: cell-based, human; settings: R/O mixture
SH-SY5Y cells [2] = experiment: Neuroprotection against rotenone/oligomycin A, pre-incubation (MTT); format: cell-based, human; settings: R/O mixture, 0.0001 µM
AChE from electric eel = AChE from electric eel (Electrophorus electricus, UniProt O42275); experiment: biochemical
Sequence of AChE from electric eel (O42275 24-633): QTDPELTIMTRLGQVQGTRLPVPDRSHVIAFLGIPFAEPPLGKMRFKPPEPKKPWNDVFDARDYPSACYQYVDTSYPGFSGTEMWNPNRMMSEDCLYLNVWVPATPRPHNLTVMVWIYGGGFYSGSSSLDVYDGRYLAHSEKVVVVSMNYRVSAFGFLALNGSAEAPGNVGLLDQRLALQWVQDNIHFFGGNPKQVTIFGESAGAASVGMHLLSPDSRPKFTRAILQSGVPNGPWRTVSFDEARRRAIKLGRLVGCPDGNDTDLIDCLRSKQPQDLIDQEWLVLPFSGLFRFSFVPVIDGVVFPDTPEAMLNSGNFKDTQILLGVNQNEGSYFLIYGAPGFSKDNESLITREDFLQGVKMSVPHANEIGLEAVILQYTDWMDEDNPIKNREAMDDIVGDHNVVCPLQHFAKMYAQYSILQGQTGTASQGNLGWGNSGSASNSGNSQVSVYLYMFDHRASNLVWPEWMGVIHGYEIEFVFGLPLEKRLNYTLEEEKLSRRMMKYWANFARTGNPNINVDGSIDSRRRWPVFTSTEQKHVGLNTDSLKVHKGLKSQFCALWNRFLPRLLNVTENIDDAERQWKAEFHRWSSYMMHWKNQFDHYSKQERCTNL

BuChE from equine serum = BuChE from equine serum (Equus caballus, UniProt P81908); experiment: biochemical
Sequence of BuChE from equine serum (P81908 whole entry): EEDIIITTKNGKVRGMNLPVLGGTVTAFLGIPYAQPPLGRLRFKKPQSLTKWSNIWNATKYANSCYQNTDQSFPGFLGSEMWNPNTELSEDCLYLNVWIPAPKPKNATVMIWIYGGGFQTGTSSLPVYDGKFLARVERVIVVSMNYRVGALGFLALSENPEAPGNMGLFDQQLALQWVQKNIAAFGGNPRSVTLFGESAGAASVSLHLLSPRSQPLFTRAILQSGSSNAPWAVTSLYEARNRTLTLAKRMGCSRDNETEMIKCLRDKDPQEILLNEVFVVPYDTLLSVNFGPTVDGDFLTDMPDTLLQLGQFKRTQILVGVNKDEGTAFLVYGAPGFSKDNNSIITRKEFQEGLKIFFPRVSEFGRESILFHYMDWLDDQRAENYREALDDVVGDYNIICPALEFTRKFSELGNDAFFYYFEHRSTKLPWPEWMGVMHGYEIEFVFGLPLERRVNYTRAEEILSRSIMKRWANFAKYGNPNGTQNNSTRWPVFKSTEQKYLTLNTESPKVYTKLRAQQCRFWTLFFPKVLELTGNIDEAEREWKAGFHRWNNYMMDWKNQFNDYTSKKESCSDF

EeAChE = EeAChE (Electrophorus electricus, UniProt O42275); experiment: Kinetic characterization of EeAChE inhibition (Lineweaver–Burk plot); format: biochemical; settings: inhibitor 25, 75, 100 nM
Sequence of EeAChE (O42275 24-633): as the sequence (O42275 24-633) above
Experimental: Compound 3e was selected and kinetic studies were performed similar to the enzyme inhibition assay. […]. 0.05–0.5 mM). All processes were assayed in triplicate.

female mice Balb/c = experiment: In vivo acute oral toxicity (OECD 423)
Experimental: (§1) Compound 3c was given orally (by gavage) in fixed doses, 5, 50, 300, or 2000 mg/kg body weight, at each stage of the study. Compound 3c was administered at an initial dose of 300 mg/kg, as its toxicity was unknown. According to the graph from the Organization for Economic Cooperation and Development (OCED) 423 guideline, six test stages might be performed. Three animals (female mice Balb/c) take part in each stage. The number of stages depends on the deaths of mice, which is the final test parameter. Results allowed for the classification of compound 3c into a Globally Harmonized Classification System for Chemical Substances and Mixtures (GHS) category. Moreover, the LD50 cut-off values were determined. The research was carried out on the basis of the agreement of the Local Ethical Committee for animal testing in Łódź No. 56/115 ŁB/2018. Compound 3c was administrated in a first dose of 300 mg/kg of body weight.
(§2) The testing protocol is as follows: After the initial dose of 300 mg/kg body weight, if 2–3 mice die, the compound is given at a lower dose (50 mg/kg). The lowest dose (5 mg/kg) is administrated if 2–3 animals die after the 50 mg/kg dose. If there are no deaths or only one mouse dies after administration of the 300 mg/kg dose, the compound is given again at the same dose (300 mg/kg). If there are no deaths again, the highest dose (2000 mg/kg) is given. After each dose, the mice are observed for 14 days. […]

[3] = In vivo acute oral toxicity (OECD 423); settings: female, Balb/c, mouse, in vivo, mice, read-out: LD50 cut-off values
Experimental: as §1, §2

[4] = molecular target: T1, Amyloid β peptide (1–42) (Aβ42) (Homo sapiens, UniProt P05067); experiment: Inhibition of self-induced Aβ42 aggregation (thioflavin-T assay); format: biochemical
T1 construct: Amyloid β peptide (1–42) (Aβ42) was purchased from Sigma Aldrich; purchased Sigma Aldrich
T1 sequence (P05067 672-713 limits assumed): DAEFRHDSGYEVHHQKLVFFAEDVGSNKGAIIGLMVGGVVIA

O=C(NCCCCNc1c2c(nc3ccccc13)CCCC2)c1cc(Cl)cc(Cl)c1 [Compound 3c] gave a neuroprotection (SH-SY5Y cells [1]; 0.0001 µM) of 29.10%, a neuroprotection (SH-SY5Y cells [1]; 0.001 µM) of 22.11% and a neuroprotection (SH-SY5Y cells [1]; 0.01 µM) of 12.90%. For the same compound, the neuroprotection (SH-SY5Y cells [1]; 0.1 µM) was 10.99%, the neuroprotection (SH-SY5Y cells [2]) was 2.84% and the “Selectivity for AChE” value (AChE from electric eel; IC50 (BuChE)/IC50(AChE)) was 4.864. The IC50 (AChE from electric eel; means ± SD of three independent experiments, read-out: EeAChE IC50 ± SD) was 25 ± 3 nM, the “Selectivity for BuChE” value (BuChE from equine serum; IC50(AChE)/IC50(BuChE)) was 0.206 and the IC50 (BuChE from equine serum; means ± SD of three independent experiments, read-out: EqBuChE IC50 ± SD) was 123 ± 11 nM. For the same compound, the “inhibition type of EeAChE” value (EeAChE) was “mixed-type inhibition”, the “GHS (Globally Harmonized System) Category” value (female mice Balb/c) was 4 and the deaths (female mice Balb/c; 300 mg/kg, first and second stages) was “did not cause any deaths”. For the same compound, the deaths (female mice Balb/c; 2000 mg/kg, first stage) was “all three mice died”, the LD50 at 14 days [3] was 500 mg/kg and the “Inhibition of Aβ aggregation” value ([4]; 5 µM) was 23%. For the same compound, the inhibition at 5 µM ([4]; 5 µM, read-out: Inhibition of Aβ aggregation) was 23.5%, the inhibition at 10 µM ([4]; 10 µM, read-out: Inhibition of Aβ aggregation) was 24.3% and the inhibition at 25 µM ([4]; 25 µM, read-out: Inhibition of Aβ aggregation) was 25.8%. For the same compound, the inhibition at 50 µM ([4]; 50 µM, read-out: Inhibition of Aβ aggregation) was 26.7%, the “Inhibition of Aβ aggregation” value ([4]; 100 µM) was 32% and the inhibition at 100 µM ([4]; 100 µM, read-out: Inhibition of Aβ aggregation) was 31.8%. For the same compound, the “Inhibition of Aβ42 aggregation” value ([4]; at all concentrations (5–100 µM)) was “more than 23%”.
